Test results as given in paper PMC9014415, “Repositioning of a Diaminothiazole Series Confirmed to Target the Cyclin-Dependent Kinase CRK12 for Use in the Treatment of African Animal Trypanosomiasis” (Journal of Medicinal Chemistry, 2022).

Assays:
[1] = Mouse hepatocyte stability; format: in vitro ADME; conditions: intrinsic clearance
[2] = target: T1, Phosphoglycerate kinase (PGK) (Trypanosoma brucei brucei, UniProt P07378); experiment: SILAC pull-down with resin-bound 13, competition by compound 2; format: binding; conditions: procyclic lysate; compound 2 10 μM vs DMSO; mean of three experiments
T1 construct: endogenous in cells; host or cells: Trypanosoma brucei procyclic form, whole-cell lysate
Method: (§1) Chemical proteomic studies were carried out by immobilizing an analogue of compound 2 (probe 13; Figure 3A and Scheme 4) to magnetic beads via a polyethyleneglycol (PEG) linker. Appropriate attachment sites for the PEG linker were informed by the established structure–activity relationships within this series, and an advanced intermediate toward the final derivatized compound was screened against both bloodstream and procyclic forms of T. brucei to ensure that it retained potency. The analogue was immobilized by attachment to NHS-ester-activated paramagnetic beads. Activated beads were then incubated in SILAC (stable isotope labeling by amino acids in cell culture)-labeled T. brucei procyclic whole-cell lysates in the presence or absence of compound 2 (10 μM) with either “light-“ or “heavy”-labeled lysate. After combining the eluates from the beads and performing proteomic analyses, proteins that bound specifically to the diaminothiazole pharmacophore were distinguished from proteins that bound non-specifically to the beads by virtue of compound 2:DMSO tryptic peptide isotope ratios. As a result of these studies, four kinases and a cyclin were identified as specific binders of the compound 2-derivatized beads (Figure 3B and Table S11). It should be noted that of the four kinases identified, only CRK12 has been established as essential for survival of T. brucei.[14] […]

[3] = tested on: Cdc-2 related kinase 11 (CRK11); experiment: as above; format: binding, Trypanosoma brucei; conditions: procyclic lysate; compound 2 10 μM vs DMSO; mean of three experiments
Method: as §1
(§2) Trypanosoma brucei procyclic form parasites were grown in SDM-79 media (SILAC SDM-79, 2 g/L NaHCO3, 7.5 mg haemin, 1% glutamax and 15% dialysed FBS) with either light or heavy isotopes for 6-9 divisions (6 days) to a density of ~3 x 10^7 cells/ml. A total of 3 x10^8 cells were washed thrice with PBS. Buffer 1 (0.1 mM tosyl phenylalanyl chloromethyl ketone, 1 µg/ml leupeptin, 1 mM aprotinin, 1 mM phenylmethylsulfonyl fluoride, 1x Roche Complete protease inhibitors) was added to the parasite pellet, followed by Buffer 2 (100 mM Tris pH 7.5, 10% glycerol, 300 mM NaCl, 3 mM MgCl2, 1.6% IGEPAL® CA-630, 2 mM dithiothreitol) and incubated at 4 °C for 20 min. Lysates were centrifuged at 100,000 g at 4 °C for 1 h. Beads (blank and compound-bound) were washed twice with water and twice with lysis buffer (Buffer 1 and 2). Lysates were incubated with 2 mg blank beads for 30 min at 4 °C. Lysates were then incubated with either 10 µM DDD00770675 or 1% DMSO for 30 min at 4 °C. Finally, lysates were incubated with 2 mg of bound compound for 1 h at 4 °C. Beads were washed three times with wash buffer (0.5% IGEPAL® CA-630, 50 mM Tris pH 8.0, 5 mM EDTA, 1 mg/ml BSA) and twice with Tris-buffered saline. Samples were combined, run 1.5 cm into a Brs-TRIS 10% acrylamide gel and stained with Coomassie quick reagent for 1 h. Gel bands were subjected to in-gel reduction with 10 mM dithiothreitol, alkylation with 50 mM iodoacetamide and digestion with 12.5 μg/mL trypsin (Pierce) for >16h at 37°C. Recovered tryptic peptides were vacuum […]
(§3) 4.5 Peptide fractionation and LC-MS/MS analysis
(§4) Peptides were fractionated using High pH RP Chromatography. A C18 Column from Waters (XBridge peptide BEH, 130Å, 3.5 µm 2.1 x 150 mm, Waters, Ireland) with a guard column (XBridge, C18, 3.5 µm, 2.1 ×10 mm, Waters) were used on a Ultimate 3000 HPLC (Thermo-Scientific). Buffers A and B used for fractionation consist, respectively, of (A) 10mM ammonium formate in milliQ water pH 9.5 and (B) 10 mM ammonium formate, pH 9.5 in 90% acetonitrile. Fractions were collected using a WPS-3000FC auto-sampler (Thermo-Scientific) at 1 min intervals. Column and guard column were equilibrated with 2% Buffer B for twenty minutes at a constant flow rate of 0.2 mL/min. Peptides (190 µL) were injected onto the column, and the separation gradient was started 1 min after sample was loaded onto the column. Peptides were eluted from the column with a gradient of 2% Buffer B to 60% Buffer B in 53 min. The column was washed for 15 min in 100% Buffer B and equilibrated at […]
(§5) 2% Buffer B for 20 min. […]

[4] = tested on: Cdc2-related kinase 12 (CRK12); experiment: as above; format: binding, Trypanosoma brucei; conditions: procyclic lysate; compound 2 10 μM vs DMSO; mean of three experiments
Method: as §1, §2, §3, §4, §5

[5] = tested on: Cyclin 9 (CYC9); experiment: as above; format: binding, Trypanosoma brucei; conditions: procyclic lysate; compound 2 10 μM vs DMSO; mean of three experiments
Method: as §1, §2, §3, §4, §5

[6] = tested on: Inositol polyphosphate kinase-like protein (IPPK); experiment: as above; format: binding, Trypanosoma brucei; conditions: procyclic lysate; compound 2 10 μM vs DMSO; mean of three experiments
Method: as §1, §2, §3, §4, §5

[7] = tested on: MAP kinase 6 (MAPK6); experiment: as above; format: binding, Trypanosoma brucei; conditions: procyclic lysate; compound 2 10 μM vs DMSO; mean of three experiments
Method: as §1, §2, §3, §4, §5

[8] = tested on: MAP kinase 4 (MAPK4); experiment: as above; format: binding, Trypanosoma brucei; conditions: procyclic lysate; compound 2 10 μM vs DMSO; mean of three experiments
Method: as §1, §2, §3, §4, §5

[9] = tested on: MAP kinase 9, putative (MAPK9); experiment: as above; format: binding, Trypanosoma brucei; conditions: procyclic lysate; compound 2 10 μM vs DMSO; mean of three experiments
Method: as §1, §2, §3, §4, §5

T1 sequence (P07378 whole entry): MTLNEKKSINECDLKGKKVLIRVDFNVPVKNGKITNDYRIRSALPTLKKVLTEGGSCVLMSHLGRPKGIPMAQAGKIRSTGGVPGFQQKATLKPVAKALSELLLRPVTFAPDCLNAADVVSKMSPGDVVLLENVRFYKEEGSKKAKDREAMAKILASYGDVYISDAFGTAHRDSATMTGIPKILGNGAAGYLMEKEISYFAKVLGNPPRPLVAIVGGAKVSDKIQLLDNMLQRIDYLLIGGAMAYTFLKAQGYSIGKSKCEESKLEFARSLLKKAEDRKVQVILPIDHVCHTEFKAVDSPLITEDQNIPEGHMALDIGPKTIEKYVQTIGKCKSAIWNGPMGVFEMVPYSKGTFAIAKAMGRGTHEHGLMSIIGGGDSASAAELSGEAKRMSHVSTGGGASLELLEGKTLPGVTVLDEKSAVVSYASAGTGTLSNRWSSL

CC(C)CS(=O)(=O)N[C@H]1CC[C@H](Nc2nc(N)c(C(=O)c3c(F)cccc3F)s2)CC1 [Compound 1, N-((trans)-4-((4-Amino-5-(2,6-difluorobenzoyl)thiazol-2-yl)amino)cyclohexyl)-2-methylpropane-1-sulfonamide]
Mouse Hepatocyte Cli [1]: 5.9 mL/min/g

CC(C)CS(=O)(=O)N[C@H]1CC[C@H](Nc2nc(N)c(C(=O)c3c(F)cc(CN(C)C)cc3F)s2)CC1 [Compound 2, N-(trans)-[4-[[4-Amino-5-[4-(dimethylaminomethyl)-2,6-difluoro-benzoyl]thiazol-2-yl]amino]cyclohexyl]-2-methyl-propane-1-sulfonamide]
Log2 ratio DMSO/compound [2]: 1.92
Log2 ratio DMSO/compound [3]: 3.57
Log2 ratio DMSO/compound [4]: 3.47
Log2 ratio DMSO/compound [5]: 3.16
Log2 ratio DMSO/compound [6]: 1.85
Log2 ratio DMSO/compound [7]: 1.62
Log2 ratio DMSO/compound [8]: 2.84
Log2 ratio DMSO/compound [9]: 4.15
